From patent US5026694A, “Platinum complexes with one radiosensitizing ligand” (priority 1989, dated 1991)
Read-outs that look alike come from different tables or passages of the source.

Tests used:
CHO cells = experiment: Radiosensitization of CHO cells (enhancement ratio); format: cell-based, Chinese hamster; settings: for ER: Table 1; for radiosensitization, relative effectiveness: cis configuration, various concentrations, FIG. 2
Description: Radiosensitization of CHO cells was determined as described by Moore, B. A., et al, sucra, at 4° C., except that the cells were incubated with complex for 1 hr at 37° C. to allow binding to DNA prior to radiation. A Picker X-ray source (250 kVp, 1.7 mm Cu) was used. As with the toxicity studies, cells were carried, irradiated, and plated in MEM a medium with 10% fetal calf serum, and plating efficiencies were determined on the seventh day after plating. Enhancement ratios (ER) were calculated from the doses required to reduce survival to 1%.

[1] = test system: Chinese hamster ovary (CHO) cells; experiment: Toxicity in hypoxic and aerated CHO cells (plating efficiency/survival); format: cell-based; set-up: plating efficiency / effect on plating efficiency: dose or concentration left out as unconfirmed; settings: for order of toxicity of free ligand: free ligands; for toxicity compared with the compounds of the invention: 100 mM/dm^3 experiments; for approximate order of hypoxic toxicity of platinum complexes: hypoxia
Description: The toxicity of the invention compounds with respect to Chinese hamster ovary (CHO) cells was compared in air and in nitrogen induced hypoxia as described by Moore, B. A., et al, Radiation Research (1976) 67:459-478. The radiosensitizing ligands, or cis or transdichlorodiamine platinum II (DDP) or the . bisubstituted platinum complexes, PtCl2 (L)2, were used as controls.
The cells were carried in MEM a medium with 10% fetal calf serum, and plating efficiencies were determined on the seventh day after plating.
In similar experiments at 100 mM/dm^3, MISO and trans-[PtCl2 (miso)2 ] show no toxicity. Survival rates for trans-DDP and monoammine were 0.2 and 0.1 respectively.
Using 100 mM levels, mono-6NQ caused plating efficiency to drop to 0 after an hour, while 6NQ had no effect after 3 hours.

cells = settings: cited from earlier work
tumors = settings: cited from earlier work
[2] = test system: L1210 cells, cDDP resistant line; experiment: Toxicity in cisDDP-resistant L1210 cells (cross-resistance); format: cell-based; settings: for Ratio (ID50 cDDP resistant/cDDP sensitive): L1210 cells; for IC50: L1210, cDDP resistant line, read-out: ID50 (the source's name)
From the text: (§1) Patients become resistant to cisplatin (cisDDP) and to many related drugs.

[3] = test system: L1210 cells, cDDP sensitive line; experiment: Toxicity in cisDDP-sensitive L1210 cells; format: cell-based; settings: read-out: ID50 (the source's name)
From the text: as §1

cancer = settings: cited from earlier work
plasmid pSV2-gpt DNA = experiment: Binding to DNA by inhibition of restriction enzyme (BamHI) cleavage of plasmid DNA; format: biochemical; set-up: inhibition of BamHI cleavage / inhibition of cleavage with BamHI: unit of the concentration uncertain; settings: for binding to DNA as indicated by enzyme inhibition: 1 hr at 37° C.; for binding to DNA, relative: all concentrations, FIG. 8; for inhibition of cleavage with BamHI: FIG. 3
Description: The ability of the invention compounds to bind DNA was tested using an assay which is based on inhibition of the ability of restriction enzymes to cleave the complexed DNA. The substrate in the assay was the plasmid pSV2-gpt (Mulligan, R., et al Science (1980) 209:1422-1427). After growth in E. coli. this 5.2 kb plasmid was extracted and linearized using PvuII. Cleavage of the extracted linearized segment by BamHI or EcoRI results in two fragments per enzyme. Inhibition of this cleavage by test compounds provides an assay method for binding of the test compounds.
In the assay, DNA (20 mg/ml) in 100 mM Tris-HCl, 1 mM EDTA, pH 8, was treated with the test compounds at approximately 100 mM for 1 hr at 37° C. Unbound drug was then removed using a G-50 Sephadex spin column (Pharmacia).
To 30 mM of the treated DNA, 23.5 ml of a buffer solution containing 0.33 M Tris-acetate, pH 7.9, 0.66 M potassium acetate, 0.10 M dithiothreitol, and 1 mg/ml BSA, along with 10 units of enzyme, were added. Enzyme activity was stopped using 1 ml 0.5 M EDTA after 30 min at 37° C. Tracking 0.25% bromophenol blue, 0.25% xylene cyanol in 30% glycerol water) was added, and 10 ml of the resulting solution loaded onto a 1% agarose gel made with E buffer (0.04 M Tris, 5 mM sodium acetate; 1 mM EDTA, pH 7.8) and subjected to horizontal electrophoresis. The slab gel was stained with aqueous ethidium bromide solution (1 ng/ml) and photographed under UV light.
Inhibition of the restriction enzyme cleavage was assessed qualitatively by noting the relative proportion of bands, or quantitatively by analyzing densitometric scans of the negatives of the recorded pictures.

DNA of CHO cells = experiment: Platinum bound to DNA extracted from whole CHO cells, atomic absorption; format: cell-based, Chinese hamster; set-up: dose or concentration left out as unconfirmed; settings: 1-2 hr exposure
From the text: Though the results of this assay were erratic they establish that the Pt complexes cross cell membranes and bind to DNA in mammalian cells.

KHT sarcoma = experiment: Potentiation of cytotoxicity in vivo by hydralazine, KHT sarcoma model
[4] = 100 mM/dm^3, cis configuration or ligand alone, dose to reduce survival to 1%
[5] = FIG. 7, cis-mono-4NI and cis-mono-5NI

## O=[N+]([O-])c1c[nH]cn1 [4-nitroimidazole]
CHO cells; [4]
  enhancement ratio (ER): 1.10
[1]
  order of toxicity of free ligand: 4-nitroimidazole f MISO f ANT f METRO

## O=[N+]([O-])c1ccc2ncccc2c1 [6NQ, 6-nitroquinoline]
[1]; after 3 hours
  effect on plating efficiency: no effect

## Nc1ncc([N+](=O)[O-])s1 [ANT, 2-amino-5-nitrothiazole]
CHO cells; [4]
  enhancement ratio (ER): 1.25
[1]
  order of toxicity of free ligand: 4-nitroimidazole f MISO f ANT f METRO

## Cc1ncc([N+](=O)[O-])n1CCO [METRO, 1,2-hydroxyethyl-2-methyl-5-nitroimidazole]
[1]
  order of toxicity of free ligand: 4-nitroimidazole f MISO f ANT f METRO
cells
  sensitizing cells to radiation treatment in clinical trials: beneficial effects in sensitizing cells to radiation treatment

## COCC(O)Cn1ccnc1[N+](=O)[O-] (centres unmarked) [MISO]
CHO cells; 100 mmol/dm^3
  ER: 1.3
CHO cells; 250 mmol/dm^3
  ER: 1.4
CHO cells
  sensitization in oxygen: no sensitization
[1]; 100 mM/dm^3
  toxicity: no toxicity
[1]
  order of toxicity of free ligand: 4-nitroimidazole f MISO f ANT f METRO
cells
  sensitizing cells to radiation treatment in clinical trials: beneficial effects in sensitizing cells to radiation treatment

## O=[N+]([O-])c1nccn1CC(O)CN1CC1 (centres unmarked) [RSU-1069]
tumors; chemotherapy
  side effects: high incidence of side effects
tumors; coadministration of 5-hydroxytryptamine or hydralazine
  amount of RSU-1069 required for effectiveness with 5-hydroxytryptamine or hydralazine: can be reduced by administration of 5-hydroxytryptamine or hydralazine
tumors; hydralazine 5 mg/kg or 30 mg/kg, RSU-1069 0.1 mg/g IP, within three hours
  enhancement of effect of RSU-1069 by hydralazine: enhance the effect of RSU-1069

## O=C(Cn1ccnc1[N+](=O)[O-])NCCO [SR-2508]
cells
  sensitizing cells to radiation treatment in clinical trials: beneficial effects in sensitizing cells to radiation treatment

## Cc1n(CCO)c([N+](=O)[O-])c[n+]1[Pt-2]([NH3+])([Cl])[Cl] [cis mono METRO]
[2]
  Ratio (ID50 cDDP resistant/cDDP sensitive): 5
[3]
  IC50: 4.4 mM

## N.N.[Cl][Pt][Cl] [cis-DDP, cis[PtCl2 (NH3)2]]
CHO cells; 10 mmol/dm^3
  ER: 1.3
cancer; literature, 1969
  antineoplastic activity: shown to have antineoplastic activity
cancer; testicular cancer versus other sites
  usefulness in treatment of cancer: useful in the treatment of testicular cancer, but less so in treatment of cancers at other sites
[2]
  IC50: 5 mM
  Ratio (ID50 cDDP resistant/cDDP sensitive): 50
[2]; more effective in "sensitive" cells
  effectiveness in sensitive versus resistant cells: 50 ×
Plasmid pSV2-gpt DNA; 40 (unit uncertain)
  inhibition of BamHI cleavage: 30%
Plasmid pSV2-gpt DNA
  binding to DNA as indicated by enzyme inhibition: binds much more strongly than the monoammine
[1]
  toxicity compared with the compounds of the invention: somewhat more toxic than the compounds of the invention
  approximate order of hypoxic toxicity of platinum complexes: cis-DDP ff trans-mono-MISO f monoammine Z cis-mono-MISO f trans-DDP f mono-METRO Z mono-NI f mono-ANT
DNA of CHO cells
  platinum bound to the extracted DNA: 6 ng Pt/10^6 cells
[3]
  IC50: 0.1 mM

## COCC(O)Cn1cc[n+]([Pt-2]([NH3+])([Cl])[Cl])c1[N+](=O)[O-] (stereo not drawn) [cis-mono-MISO, PtCl2 (NH3) (misonidazole)]
CHO cells; 100 mmol/dm^3
  ER: 1.25
CHO cells
  sensitization in oxygen: no sensitization
[1]; 100 mM/dm^3, aerobic and hypoxic cells, FIG. 1
  toxicity in hypoxia versus in air: toxicity is greater in hypoxia than in air
[1]; complex 100 mM/dm^3, cis-DDP at 10 mM/dm^3
  toxicity compared with MISO alone and cisDDP: more toxic than MISO alone, although less toxic than cisDDP
[3]; listed as cis mono MISO
  IC50: 8.5 mM

## N.O=[N+]([O-])c1c[nH]cn1.[Cl][Pt][Cl] [mono-4NI, PtCl2 (ammine)(4-nitroimidazole)]
CHO cells; [4]
  enhancement ratio (ER): 1.16
CHO cells; [5]
  enhancement ratio (ER): 1.16
CHO cells
  radiosensitization, relative effectiveness: somewhat more effective than mono-ANT
Plasmid pSV2-gpt DNA
  binding to DNA, relative: neither bound as well, however, as cis-DDP
[1]
  approximate order of hypoxic toxicity of platinum complexes: cis-DDP ff trans-mono-MISO f monoammine Z cis-mono-MISO f trans-DDP f mono-METRO Z mono-NI f mono-ANT

## N.O=[N+]([O-])c1cnc[nH]1.[Cl][Pt][Cl] [mono-5NI, PtCl2 (ammine)(5-nitroimidazole)]
CHO cells; [5]
  enhancement ratio (ER): 1.28
Plasmid pSV2-gpt DNA
  binding to DNA, relative: more effective binding to DNA at all concentrations than cis-mono-4NI; neither bound as well, however, as cis-DDP

## N.O=[N+]([O-])c1ccc2ncccc2c1.[Cl][Pt][Cl] [mono-6NQ, [PtCl2 (NH3)(6-nitroquinoline)]
[1]; FIG. 5
  toxicity compared with 6NQ alone: much higher toxicity than 6NQ alone
[1]; after an hour, 60 min
  plating efficiency: 0

## N.Nc1ncc([N+](=O)[O-])s1.[Cl][Pt][Cl] [mono-ANT, PtCl2 (ammine)(2-amino-5-nitrothiazole)]
CHO cells; [4]
  enhancement ratio (ER): 1.15
Plasmid pSV2-gpt DNA; 320 (unit uncertain)
  inhibition of cleavage with BamHI: At least 10%
[1]
  approximate order of hypoxic toxicity of platinum complexes: cis-DDP ff trans-mono-MISO f monoammine Z cis-mono-MISO f trans-DDP f mono-METRO Z mono-NI f mono-ANT

## Cc1ncc([N+](=O)[O-])n1CCO.N.[Cl][Pt][Cl] [mono-METRO]
CHO cells
  radiosensitization, relative effectiveness: approximately equal to mono-ANT
Plasmid pSV2-gpt DNA; approximately 50 mM
  inhibition of cleavage with BamHI: At least 10%
[1]
  approximate order of hypoxic toxicity of platinum complexes: cis-DDP ff trans-mono-MISO f monoammine Z cis-mono-MISO f trans-DDP f mono-METRO Z mono-NI f mono-ANT

## COCC(O)Cn1cc[n+]([Pt-2]([NH3+])([Cl])[Cl])c1[N+](=O)[O-] (centres unmarked) [mono-MISO, PtCl2 (NH3) (misonidazole)]
CHO cells
  radiosensitization, relative effectiveness: somewhat more effective than mono-NI
Plasmid pSV2-gpt DNA; approximately 50 mM
  inhibition of cleavage with BamHI: At least 10%
KHT sarcoma; hydralazine 5 mg/kg, FIG. 4
  potentiation by hydralazine: potentiating effects of hydralazine on this compound
KHT sarcoma; with hydralazine
  dose reduction to achieve equitoxic doses when hydralazine is coadministered: 4 ×
KHT sarcoma; with hydralazine, mono-MISO 10 to 300 mg/kg, FIG. 4
  drop in cell survival with combined therapy: approx. 3 logs

## N.[Cl][Pt-]([Cl])[Cl].[K+] [monoammine, K[PtCl3 (NH3)]]
CHO cells; 100 mmol/dm^3
  ER: 1.2
Plasmid pSV2-gpt DNA; 160 mM (level not reached until this concentration)
  inhibition of BamHI cleavage: 30%
Plasmid pSV2-gpt DNA
  binding to DNA as indicated by enzyme inhibition: showed binding to the DNA as indicated by enzyme inhibition
[1]; 100 mM/dm^3
  Survival rate: 0.1
[1]
  toxicity compared with the compounds of the invention: somewhat more toxic than the compounds of the invention
  approximate order of hypoxic toxicity of platinum complexes: cis-DDP ff trans-mono-MISO f monoammine Z cis-mono-MISO f trans-DDP f mono-METRO Z mono-NI f mono-ANT

## N.N.[Cl][Pt+2][Cl] [trans-DDP, transdichlorodiamine platinum II]
CHO cells; 100 mmol/dm^3
  ER: 1.3
[2]
  IC50: 66 mM
  Ratio (ID50 cDDP resistant/cDDP sensitive): 3
[1]; 100 mM/dm^3
  Survival rate: 0.2
[1]
  toxicity compared with the compounds of the invention: somewhat less toxic
  approximate order of hypoxic toxicity of platinum complexes: cis-DDP ff trans-mono-MISO f monoammine Z cis-mono-MISO f trans-DDP f mono-METRO Z mono-NI f mono-ANT
DNA of CHO cells
  platinum bound to the extracted DNA: 5 ng Pt/10^6 cells
[3]
  IC50: 22 mM

## COCC(O)Cn1cc[n+]([Pt-2]([Cl])([Cl])[n+]2ccn(CC(O)COC)c2[N+](=O)[O-])c1[N+](=O)[O-] (stereo not drawn) [trans-bis-MISO, trans-[PtCl2 (miso)2]]
CHO cells; 100 mmol/dm^3
  ER: 1.2
CHO cells
  sensitization in oxygen: no sensitization
[1]; 100 mM/dm^3
  toxicity: no toxicity
[1]
  toxicity compared with the compounds of the invention: somewhat less toxic
